This is an account of results in patent publication US20240336604A1 (THE UNITED STATES OF AMERICA, AS REPRESENTED BY THE …, priority 2021, published 2024).

Entries after “also recorded” stand apart in the source; their conditions may differ.

The target of assay [1] is T1, D3 DAR (Homo sapiens, UniProt P35462). The assay can be described thus: DiscoverX D3 DAR β-arrestin recruitment assay. It is filed as cell-based. On the set-up: host or cells: CHO. The procedure, abridged:
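CHO cells overexpressing D3 DAR fused to a ProLink β-galactosidase fragment plus a β-arrestin–β-galactosidase deletion mutant fusion. Receptor activation drives β-arrestin recruitment and enzyme complementation. Chemiluminescent read-out after detection substrate is added.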
(Activated receptors often draw arrestin, which recruitment assays turn into a signal.)

In assay [2] the target is T1, D3 DAR. The assay can be described thus: Functional curve-shift assays using the DiscoverX β-arrestin recruitment assay. On the set-up: host or cells: CHO. It is filed as cell-based. The text has this:
To further assess the mechanism of action of Cmp. […] 1 (FIGS. 4B and 4D). […] Average curves are shown (mean±SEM from at least 3 experiments each performed in triplicate). […] In contrast, increasing concentrations of Cmp.
1. FIG. 6A-C panels show concentration-response curves of dopamine in the absence or presence of increasing concentrations of compound. Cmp. […] 18 (FIG. 6A), Cmp. 5 (FIG. 6B), and Cmp. 17 (FIG. 6C), respectively. Average curves are shown (mean±SEM from at least 3 experiments, each performed in triplicate).
A D3 DAR β-arrestin cell line from DiscoverX (Fremont, CA) was used as described in the protocol below (Table 2). A CHO cell line engineered to overexpress the D3 DAR fused with a small 42-amino acid fragment of β-galactosidase called ProLink™ and a fusion protein consisting of β-arrestin and a larger N-terminal deletion mutant of β-galactosidase was used (DiscoverX catalogue number 93-0579C2). When the D3 DAR is activated by dopamine, it stimulates binding of β-arrestin to ProLink-tagged D3 DARs, and the two complementary parts of β-galactosidase form a functional enzyme. When substrate (PathHunter® Detection reagent, DiscoverX 93-0001) is added, β-galactosidase hydrolyzes it and generates a chemiluminescent signal.

Assay [3] concerns 45 GPCRs, ion channels, and neurotransmitter transporters. The assay can be described thus: PDSP radioligand binding panel. As to conditions: 10 μM. The procedure:
(§1) Cmp. 1 was tested as both an agonist (FIG. 5A) or an antagonist (FIG. 5B) at a single high concentration (30 μM) on 168 different GPCRs in the DiscoverX gpcrMAX™ β-arrestin recruitment assay panel (FIGS. 5A and 5B). Assay results are presented as the mean percent activation of indicated GPCRs (for n=2 replicates). For a full description of the DiscoverX gpcrMAX™-GPCR assay panel and methods (see: http://www.DiscoverX.com). […] Data were provided by the National Institute of Mental Health (NIMH) Psychoactive Drug Screening Program (PDSP) (University of North Carolina, Chapel Hill, NC). For experimental details including radioligands used and associated Kd values for each individual target, refer to the PDSP website: http://pdsp.med.unc.edu/. While Cmp. […] The 5-HT6 receptor was not present in the functional panels, however, subsequent testing found Cmp.

Another assay deals with 168 unique GPCRs. The assay can be described thus: DiscoverX gpcrMAX β-arrestin recruitment assay panel. The note with it: 30 μM. It is filed as cell-based. The procedure: as §1

T1 sequence (P35462 whole entry, the tested form may be a part): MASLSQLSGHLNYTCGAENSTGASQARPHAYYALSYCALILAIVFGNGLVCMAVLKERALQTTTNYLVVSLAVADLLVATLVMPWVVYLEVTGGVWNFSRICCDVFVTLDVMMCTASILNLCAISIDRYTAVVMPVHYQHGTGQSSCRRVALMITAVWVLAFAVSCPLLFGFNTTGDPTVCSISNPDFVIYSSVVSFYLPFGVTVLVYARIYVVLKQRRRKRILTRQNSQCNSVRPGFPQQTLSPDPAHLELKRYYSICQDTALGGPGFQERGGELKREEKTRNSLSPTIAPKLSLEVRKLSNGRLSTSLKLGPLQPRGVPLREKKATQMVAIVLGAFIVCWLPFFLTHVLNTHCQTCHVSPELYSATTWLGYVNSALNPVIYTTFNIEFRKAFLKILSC

Consider `Cc1ccc(NS(=O)(=O)c2c(C)[nH]c(C)c2C(=O)N2CCCC2)cc1Cl` [Cmp. 1], for which the IC50 on D3 DAR [1] (DiscoverX β-arrestin assay, FIG. 1A, 2A, read-out: IC50, inhibition of dopamine-stimulated β-arrestin recruitment to the D3 DAR) is roughly 16 µM; on D3 DAR [1] (EC80 concentration of DA (30 nM), read-out: D3 DAR IC50) it was 10 to 50 µM; on D3 DAR [2] (agonist dopamine, read-out: Functional IC50 for decreasing the Emax of dopamine), 17 µM; on D3 DAR [2] (agonist pramipexole, read-out: Functional IC50 for decreasing the Emax of pramipexole), 14 µM. The molecule also returned an Emax on D3 DAR [1] (Imax=maximum inhibition, EC80 DA (30 nM)) of 80 to 100%. In addition, at D3 DAR [2] (versus agonist (dopamine, pramipexole)), the “mode of antagonism in curve-shift assays” value was “behaves in a non-competitive manner”. For the same molecule, the “off-target affinity / displacement in radioligand binding panel” value in assay [3] is “limited off-target affinity; also recorded: minimal displacement at only the H1 histamine and 5-HT6 serotonin receptors”. Also, the “functional activity at the H1 receptor in the functional panels” value in the assay with 168 unique GPCRs (H1 receptor) is on record as “no functional activity”. In the assay on 168 unique GPCRs (agonist mode), the “agonist activity in gpcrMAX panel” value is given as “lacked agonist activity at all 168 GPCRs”. Besides, in the assay with 168 unique GPCRs (antagonist mode), the “antagonist activity in gpcrMAX panel” value was “the only GPCR that was antagonized was the D3 DAR”.

As usually defined, the IC50 is the point on the concentration scale where inhibition reaches its midpoint. Usually Emax stands for the maximal effect, on the per cent scale that the assay sets.
